This passage reports IC50, CC50 and inhibition results from patent US9212134B2, “Inhibitors of viral entry into mammalian cells” (priority 2010, dated 2015).

The subject of data set [1] is HIV/HA (H5) pseudotype virus. Put plainly: organism not typed. The class given is cell-based, influenza A virus H5N1. Particulars: for inhibition at 25 µM: A549, read-out: % inhibition @ 25 μM influenza.
Data set [2] deals with cell viability (endogenous cellular GAPDH). The data set can be described thus: Cell viability, AlphaScreen SureFire GAPDH assay. The settings on record: cytotoxicity.
In data set [3] the test system is HIV/VSV-G pseudotype virus. Put plainly: organism not typed. The class given is cell-based, vesicular stomatitis virus. The settings on record: read-out: % inhibition @ 25 μM VSV.
For another data set, the system named is Pseudotype ebola virus. The data set can be described thus: microbe, parasite or virus in culture. It counts as cell-based. Particulars: Zaire ebolavirus, read-out: % inhibition @ 25 μM EBOV.

In the case of `COc1ccc(N(CC(=O)Nc2ccccc2C)S(=O)(=O)c2ccccc2)cc1` [Compound 11], in data set [1], the IC50 was > 100 µM. The CC50 in data set [2] was > 100 µM.
As to `COc1ccc(S(=O)(=O)N(CC(=O)Nc2cccc3ccccc23)c2ccc(Cl)cc2)cc1` [Compound 12308_B02], the inhibition at 25 µM in data set [1] was found to be 46%; in data set [3], 23%; in the data set with Pseudotype ebola virus, 96%.
Take `COc1ccccc1NC(=O)CN(c1ccc(Cl)cc1C)S(C)(=O)=O` [Compound 12078_B05]: the results for the inhibition at 25 µM (in data set [1]; in data set [3]; in the data set on Pseudotype ebola virus) were 96%, 36% and 42%, respectively.
In turn, `O=C(CN(c1ccc(Cl)cc1Cl)S(=O)(=O)c1ccccc1)Nc1ccc(F)cc1` [Compound 10] had an IC50 in data set [1] of 25 µM. The CC50 in data set [2] worked out at 50.5 µM.
On to `COc1ccc(N(CC(=O)Nc2ccccc2SC)S(=O)(=O)c2ccc(F)cc2)cc1` [Compound 12794_H03], for which the inhibition at 25 µM in data set [1] came to 47%; in data set [3], 77%; with Pseudotype ebola virus, 100%.
Regarding `COc1cccc(N(CC(=O)Nc2cc(Cl)cc(Cl)c2)S(=O)(=O)c2ccccc2)c1` [Compound 7], the IC50 in data set [1] was found to be 18.5 µM. Further, the CC50 in data set [2] was found to be 31.5 µM.
For `COc1ccc(S(=O)(=O)N(CC(=O)Nc2ccc(F)cc2F)c2ccc(Cl)cc2)cc1` [Compound 12079_A05], the inhibition at 25 µM came to 19% in data set [1], 0% in data set [3] and 86% in the data set with Pseudotype ebola virus.
For the molecule `COc1ccc(Cl)cc1NC(=O)CN(c1cccc(Cl)c1Cl)S(C)(=O)=O` [Compound 12021_B02], the inhibition at 25 µM in data set [1] worked out at 87%; in data set [3], 70%; in the data set on Pseudotype ebola virus, 0%.
As for `COc1ccc(Cl)cc1N(CC(=O)Nc1ccc(F)cc1F)S(=O)(=O)c1ccc(C)cc1` [Compound 12096_A08], the inhibition at 25 µM was found to be 88% in data set [1], 42% in data set [3] and 38% in the data set on Pseudotype ebola virus.
On the same counts, the results for `COc1cccc(N(CC(=O)Nc2ccc(CSc3ccccc3)cc2)S(C)(=O)=O)c1` [Compound 11997_F05] are 100%, 51% and 41%.
In the case of `COc1ccc(N(CC(=O)Nc2ccccc2-c2ccccc2)S(=O)(=O)c2ccc(F)cc2)cc1` [Compound 12838_B07], the inhibition at 25 µM in data set [1] is 46%; in data set [3] it was 77%; with Pseudotype ebola virus, 99%.
In the same order, the values of `COc1ccc(S(=O)(=O)N(CC(=O)Nc2ccc(F)c(Cl)c2)c2ccccc2)cc1` [Compound 12078_D04] are 40%, 60% and 87%.
Turning to `COc1ccc(OC)c(N(CC(=O)Nc2ccc(Cl)cc2)S(=O)(=O)c2ccc(C)cc2)c1` [Compound 8], the IC50 in data set [1] was > 100 µM. In addition, the CC50 in data set [2] is > 100 µM.
As for `COc1ccc(S(=O)(=O)N(CC(=O)Nc2cccc3ccccc23)c2ccc(C)cc2)cc1` [Compound 12305_B04], the inhibition at 25 µM turned out to be 47% in data set [1], 0% in data set [3] and 85% with Pseudotype ebola virus.
On the same counts, the results for `COc1ccc(S(=O)(=O)N(CC(=O)Nc2ccccc2SC)c2ccc(Cl)cc2)cc1` [Compound 12794_B09] are 0%, 63% and 100%.
With `COc1ccc(NC(=O)CN(c2ccccc2Cl)S(=O)(=O)c2ccc(C)cc2)c(OC)c1` [Compound 23], the IC50 in data set [1] was > 100 µM. Moreover, in data set [2], the CC50 was > 100 µM.
As to `CCOc1ccccc1NC(=O)CN(c1cc(Cl)ccc1Cl)S(C)(=O)=O` [Compound 12110_D02], the inhibition at 25 µM in data set [1] is 90%; in data set [3], 2%; in the data set on Pseudotype ebola virus, 0%.
For `Cc1ccc(S(=O)(=O)N(CC(=O)Nc2cccc(C)c2)c2ccccc2Cl)cc1` [Compound 22], in data set [1], the IC50 was > 100 µM. Further, the CC50 in data set [2] is > 100 µM.
`O=C(CN(c1ccc(Cl)c(Cl)c1)S(=O)(=O)c1ccccc1)Nc1ccccc1` [Compound 9] showed an IC50 in data set [1] of 20 µM. In data set [2], this molecule came in with a CC50 of 42 µM.
In the same order, the values of `O=C(CN(c1cccc(Cl)c1)S(=O)(=O)c1ccccc1)Nc1ccccc1Cl` [Compound 19] are > 100 µM and 90.3 µM.
In the same order, the values of `Cc1cccc(C)c1NC(=O)CN(c1cccc(Cl)c1)S(=O)(=O)c1ccccc1` [Compound 17] are > 100 µM and > 100 µM.
Turning to `O=C(CN(c1ccccc1F)S(=O)(=O)c1ccccc1)Nc1cccc(C(F)(F)F)c1` [Compound 30656_D10], the inhibition at 25 µM in data set [1] came to 87%; in data set [3] it was 59%; in the data set with Pseudotype ebola virus, 31%.
In the same order, the values of `Cc1cccc(NC(=O)CN(c2cccc(Cl)c2Cl)S(C)(=O)=O)c1` [Compound 11998_D06] are 88%, 0% and 0%.
Consider `Cc1ccc(S(=O)(=O)N(CC(=O)Nc2ccccc2C(F)(F)F)c2ccc(F)cc2)cc1` [Compound 12440_F06], for which the inhibition at 25 µM in data set [1] worked out at 46%; in data set [3], 45%; in the data set on Pseudotype ebola virus, 93%.
In the same order, the values of `CCc1ccccc1N(CC(=O)Nc1cccc(F)c1)S(C)(=O)=O` [Compound 12112_H02] are 86%, 0% and 0%.
Turning to `COC(=O)c1ccccc1NC(=O)CN(c1ccc(C)cc1)S(=O)(=O)c1ccc(OC)cc1` [Compound 11978_G07], the inhibition at 25 µM came to 22% in data set [1], 29% in data set [3] and 89% with Pseudotype ebola virus.
In the case of `CCc1ccc(N(CC(=O)Nc2ccc(Oc3ccccc3)cc2)S(C)(=O)=O)cc1` [Compound 12066_B08], the inhibition at 25 µM in data set [1] came to 98%; in data set [3], 24%; in the data set with Pseudotype ebola virus it was 31%.
On the same counts, the results for `Cc1c(Cl)cccc1NC(=O)CN(c1ccc(I)cc1)S(C)(=O)=O` [Compound 12076_B09] are 86%, 21% and 48%.
Consider `CS(=O)(=O)N(CC(=O)Nc1ccccc1F)c1cc(C(F)(F)F)ccc1Cl` [Compound 12020_E02], for which the inhibition at 25 µM in data set [1] was determined as 86%; in data set [3] it was 68%; in the data set on Pseudotype ebola virus, 43%.
For the molecule `CCOc1ccc(N(C(C)C(=O)Nc2cccc(C(F)(F)F)c2)S(C)(=O)=O)cc1` (stereo not drawn) [Compound 11982_F11], the inhibition at 25 µM in data set [1] is 87%; in data set [3], 73%; in the data set on Pseudotype ebola virus, 25%.
On the same counts, the results for `COc1ccc(N(CC(=O)Nc2ccccc2F)S(=O)(=O)c2ccccc2)cc1Cl` [Compound 12441_B08] are 33%, 7% and 98%.
On the same counts, the results for `COC(=O)c1ccccc1NC(=O)CN(c1ccc(C)cc1)S(=O)(=O)c1ccccc1` [Compound 30636_C03] are 26%, 42% and 87%.
In the same order, the values of `Cc1ccc(N(CC(=O)Nc2ccccc2C(C)C)S(C)(=O)=O)cc1` [Compound 12402_E03] are 47%, 22% and 85%.
